Measured values as given in US12606552B2, “Bifunctional compound, preparation method therefor, and use thereof” (SUZHOU KINTOR PHARMACEUTICALS, INC., priority 2020, dated 2026).

Tests used:
AR = target: T1, AR (Homo sapiens, UniProt P10275, T878A); assay: Effects of compounds on AR expression in LNCaP cells (ELISA, DC50); type: cell-based; parameters: Measurement of the Effects of Drugs on the Expression of AR in Cells by ELISA Method; endogenous in cells; host or cells: LNCaP; conditions: 24 hours of drug treatment, AR by ELISA
T1 sequence (P10275 1-920 T878A): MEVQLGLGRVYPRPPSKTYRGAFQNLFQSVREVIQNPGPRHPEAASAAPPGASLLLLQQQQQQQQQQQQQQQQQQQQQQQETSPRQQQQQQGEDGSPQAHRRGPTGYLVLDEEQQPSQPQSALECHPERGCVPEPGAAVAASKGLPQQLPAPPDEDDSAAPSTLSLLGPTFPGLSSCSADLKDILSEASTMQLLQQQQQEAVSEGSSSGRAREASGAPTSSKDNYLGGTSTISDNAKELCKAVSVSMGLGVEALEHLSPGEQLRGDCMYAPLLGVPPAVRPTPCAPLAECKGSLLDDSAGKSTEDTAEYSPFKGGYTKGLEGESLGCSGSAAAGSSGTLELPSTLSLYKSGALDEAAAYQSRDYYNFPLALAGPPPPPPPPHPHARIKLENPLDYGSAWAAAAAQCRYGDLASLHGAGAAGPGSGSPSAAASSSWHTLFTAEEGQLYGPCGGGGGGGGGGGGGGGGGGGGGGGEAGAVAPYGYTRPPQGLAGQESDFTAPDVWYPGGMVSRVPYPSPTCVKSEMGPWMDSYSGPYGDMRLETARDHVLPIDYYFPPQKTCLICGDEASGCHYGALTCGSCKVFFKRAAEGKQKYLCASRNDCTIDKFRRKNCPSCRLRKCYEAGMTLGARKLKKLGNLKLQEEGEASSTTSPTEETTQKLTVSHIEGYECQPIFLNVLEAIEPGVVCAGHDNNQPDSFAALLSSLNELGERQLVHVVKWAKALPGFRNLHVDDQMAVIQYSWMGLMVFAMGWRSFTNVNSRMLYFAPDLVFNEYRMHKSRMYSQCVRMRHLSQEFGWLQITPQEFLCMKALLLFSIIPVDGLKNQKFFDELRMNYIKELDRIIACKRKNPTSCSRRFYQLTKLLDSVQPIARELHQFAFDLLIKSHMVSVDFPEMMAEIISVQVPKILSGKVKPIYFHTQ
In short: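 LNCaP cells at about 15,000/well were treated for 24 h with compound at 0.0001–2 μmol/L final. AR in cell lysates was measured by ELISA (OD450). Inhibition was relative to DMSO control after blank subtraction, and DC50 was calculated from it.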

[1] = Pharmacokinetic studies of compounds in mice; type: in vivo; conditions: male mice, intragastric administration 10 mg/kg, plasma
Protocol: Activity Assay Example 3: Pharmacokinetic Studies of Compounds in Mice
In this test, 3 male mice were selected and divided into 1 group, 3 mice/group. All animals were fasted overnight before administration.
The intragastric administration dose was 10 mg/kg, and the administration volume was 10 mL/kg.
2.2 Preparation of Drug Solution
According to the animal body weight combined with the administration dose, the amount of the required drug solution was calculated. An appropriate amount of the test substance was weighed, added with 5% of the final volume of ethanol for dissolution, then added with 5% of the final volume of SolutolHS15, and finally added with PBS to the final volume, and mixed by vortex and fully dissolved to obtain a solution for intragastric administration (1 mg/mL). All solutions were prepared for immediate use.
2.3 Method of Administration
Before administration, the drug solution was placed on a magnetic stirrer in the animal laboratory and stirred for at least 10 min. During the administration process, vortex was continued to ensure uniformity of the drug solution. The theoretical volume of gavage administration was 10 mL/kg, which was administered with a syringe equipped with a gavage needle.
Before administration, the animals were weighed and the body weight of the animals involved in the experiment was recorded, and the administration volume of each animal was calculated according to the body weight. After administration, animals were promptly transferred back to the experimental cages to collect samples.
2.4 Observation of Animal Status
After administration, whether animals had abnormal reactions was observed immediately. If there were no abnormal reactions, animals were observed twice a day during the experiment. If abnormal reactions were found, they should be recorded in time, and the number of observations should be increased until the animals returned to normal or to the end of the experiment.
2.5 Sample Collection and Preservation
All experimental animals were fasted overnight before administration, and blood was collected at corresponding time points into blood collection tubes containing heparin sodium anticoagulant. After the whole blood was collected, the blood collection tube was gently shaken and placed on ice immediately, and then centrifuged (4° C., 4000 rpm, 10 min) to collect supernatant plasma samples, which were stored in a refrigerator at −80° C. before analysis.
2.6 Plasma Sample Processing and Analysis
The collected plasma samples were handed over to the Pharmacokinetic department for sample extraction, and the test substances in the plasma were extracted by protein precipitation method using organic reagents containing internal standards (acetonitrile:plasma=4:1, v/v). The extracted processed samples were submitted for quantitative concentration analysis by LC-MS/MS. According to the plasma concentration of each animal obtained by the analysis, software Kinetica (version 5.0) was used to calculate the main pharmacokinetic parameter eAUC30-120 according to the non-compartment model to evaluate the exposure amount; the test results are shown in Table 2: […]

SMILES | DC50 (AR) [µM] | eAUC0.5-2 h [1] [µg·h/mL]
Cc1ncsc1-c1ccc(CNC(=O)[C@@H]2C[C@@H](O)CN2C(=O)[C@@H](NC(=O)COCCOc2ccc(-c3ncc(N4C(=S)N(c5ccc(C#N)c(C(F)(F)F)c5F)C(=O)C4(C)C)cc3F)cc2F)C(C)(C)C)cc1 [Compound A91] | 0.108 | 3.16 ± 2.82
Cc1ncsc1-c1ccc(CNC(=O)[C@@H]2C[C@@H](O)CN2C(=O)[C@@H](NC(=O)COCCOCCOc2ccc(-c3ncc(N4C(=S)N(c5ccc(C#N)c(C(F)(F)F)c5F)C(=O)C4(C)C)cc3C(F)(F)F)cc2)C(C)(C)C)cc1 [Compound A93] | 0.0511 | 0.275 ± 0.116
Cc1ncsc1-c1ccc(CNC(=O)[C@@H]2C[C@@H](O)CN2C(=O)[C@@H](NC(=O)COCCCCOc2ccc(-c3ncc(N4C(=S)N(c5ccc(C#N)c(C(F)(F)F)c5F)C(=O)C4(C)C)cc3F)c(F)c2)C(C)(C)C)cc1 [Compound A94] | 0.0584 | 0.41 ± 0.038
Cc1ncsc1-c1ccc(CNC(=O)[C@@H]2C[C@@H](O)CN2C(=O)[C@@H](NC(=O)COCCCCOc2ccc(-c3ncc(N4C(=S)N(c5ccc(C#N)c(C(F)(F)F)c5F)C(=O)C4(C)C)cc3C(F)(F)F)c(F)c2)C(C)(C)C)cc1 [Compound A95] | 0.106 | 1.234 ± 0.43
Cc1ncsc1-c1ccc(CNC(=O)[C@@H]2C[C@@H](O)CN2C(=O)[C@@H](NC(=O)COCCCCCOc2c(F)cc(-c3ncc(N4C(=S)N(c5ccc(C#N)c(C(F)(F)F)c5F)C(=O)C4(C)C)cc3F)cc2F)C(C)(C)C)cc1 [Compound A97] | 0.0984 | 1.69 ± 0.158
Cc1ncsc1-c1ccc(CNC(=O)[C@@H]2C[C@@H](O)CN2C(=O)[C@@H](NC(=O)COCCOCCOc2c(F)cc(-c3ncc(N4C(=S)N(c5ccc(C#N)c(C(F)(F)F)c5F)C(=O)C4(C)C)cc3F)cc2F)C(C)(C)C)cc1 [Compound A99] | 0.0232 | 0.308 ± 0.288
Cc1ncsc1-c1ccc(CNC(=O)[C@@H]2C[C@@H](O)CN2C(=O)[C@@H](NC(=O)COCCCCOc2ccc(-c3ccc(N4C(=S)N(c5ccc(C#N)c(C(F)(F)F)c5F)C(=O)C4(C)C)cn3)cn2)C(C)(C)C)cc1 [Compound A100] | 0.0189 | 0.72 ± 0.206
Cc1ncsc1-c1ccc(CNC(=O)[C@@H]2C[C@@H](O)CN2C(=O)[C@@H](NC(=O)COCCCCOc2ccc(-c3ncc(N4C(=S)N(c5ccc(C#N)c(C(F)(F)F)c5F)C(=O)C4(C)C)cc3C(F)(F)F)c(C(F)(F)F)c2)C(C)(C)C)cc1 [Compound A101] | 0.115 | 0.508 ± 0.171
Cc1ncsc1-c1ccc(CNC(=O)[C@@H]2C[C@@H](O)CN2C(=O)[C@@H](NC(=O)COCCCCOc2c(F)cc(-c3ccc(N4C(=S)N(c5ccc(C#N)c(C(F)(F)F)c5F)C(=O)C4(C)C)cn3)cc2F)C(C)(C)C)cc1 [Compound A103] | 0.152 | 0.984 ± 0.617
Cc1ncsc1-c1ccc(CNC(=O)[C@@H]2C[C@@H](O)CN2C(=O)[C@@H](NC(=O)[C@H]2CC[C@H](CNC(=O)c3ccc(-c4ccc(N5C(=S)N(c6ccc(C#N)c(C(F)(F)F)c6F)C(=O)C5(C)C)cn4)cc3F)CC2)C(C)(C)C)cc1 [Compound A105] | 0.188 | 0.379 ± 0.3
Cc1ncsc1-c1ccc([C@H](C)NC(=O)[C@@H]2C[C@@H](O)CN2C(=O)[C@@H](NC(=O)COCCCCOc2ccc(-c3ncc(N4C(=S)N(c5ccc(C#N)c(C(F)(F)F)c5F)C(=O)C4(C)C)cc3C(F)(F)F)cc2F)C(C)(C)C)cc1 [Compound A108] | 0.136 | 0.993 ± 0.201
Cc1ncsc1-c1ccc([C@H](C)NC(=O)[C@@H]2C[C@@H](O)CN2C(=O)[C@@H](NC(=O)COCCCCOc2ccc(-c3ncc(N4C(=S)N(c5ccc(C#N)c(C(F)(F)F)c5F)C(=O)C4(C)C)cc3F)c(C(F)(F)F)c2)C(C)(C)C)cc1 [Compound A109] | 0.0714 | 0.557 ± 0.108
Cc1ncsc1-c1ccc([C@H](C)NC(=O)[C@@H]2C[C@@H](O)CN2C(=O)[C@@H](NC(=O)COCCCCOc2ccc(-c3ncc(N4C(=S)N(c5ccc(C#N)c(C(F)(F)F)c5F)C(=O)C4(C)C)cc3F)cc2F)C(C)(C)C)cc1 [Compound A110] | 0.0564 | 1.098 ± 0.208
Cc1ncsc1-c1ccc(CNC(=O)[C@@H]2C[C@@H](O)CN2C(=O)[C@@H](NC(=O)COCCCCOc2ccc(-c3ncc(N4C(=S)N(c5ccc(C#N)c(C(F)(F)F)c5F)C(=O)C4(C)C)cn3)cc2F)C(C)(C)C)cc1 [Compound A111] | 0.0462 | 0.297 ± 0.078
Cc1ncsc1-c1ccc([C@H](C)NC(=O)[C@@H]2C[C@@H](O)CN2C(=O)[C@@H](NC(=O)COCCCCCOc2ccc(-c3ncc(N4C(=S)N(c5ccc(C#N)c(C(F)(F)F)c5F)C(=O)C4(C)C)cc3F)cc2F)C(C)(C)C)cc1 [Compound A112] | 0.153 | 0.383 ± 0.165
Cc1ncsc1-c1ccc([C@H](C)NC(=O)[C@@H]2C[C@@H](O)CN2C(=O)[C@@H](NC(=O)COCCCCOc2c(F)cc(-c3ncc(N4C(=S)N(c5ccc(C#N)c(C(F)(F)F)c5F)C(=O)C4(C)C)cc3C(F)(F)F)cc2F)C(C)(C)C)cc1 [Compound A115] | 0.214 | 1.136 ± 0.164
Cc1ncsc1-c1ccc([C@H](C)NC(=O)[C@@H]2C[C@@H](O)CN2C(=O)[C@@H](NC(=O)COCCOc2ccc(-c3ncc(N4C(=S)N(c5ccc(C#N)c(C(F)(F)F)c5F)C(=O)C4(C)C)cc3F)cc2F)C(C)(C)C)cc1 [Compound A123] | 0.0613 | 0.287 ± 0.146
Cc1ncsc1-c1ccc([C@H](C)NC(=O)[C@@H]2C[C@@H](O)CN2C(=O)[C@@H](NC(=O)COCCCCOc2c(F)cc(-c3ncc(N4C(=S)N(c5ccc(C#N)c(C(F)(F)F)c5F)C(=O)C4(C)C)cc3F)cc2F)C(C)(C)C)cc1 [Compound A124] | 0.188 | 2.776 ± 0.292
Cc1ncsc1-c1ccc([C@H](C)NC(=O)[C@@H]2C[C@@H](O)CN2C(=O)[C@@H](NC(=O)COCCCCOc2ccc(-c3ccc(N4C(=S)N(c5ccc(C#N)c(C(F)(F)F)c5F)C(=O)C4(C)C)cn3)cn2)C(C)(C)C)cc1 [Compound A126] | 0.055 | 1.11 ± 0.158
Cc1ncsc1-c1ccc([C@H](CC(=O)N2CCC(C#Cc3ccc(N4C(=S)N(c5ccc(C#N)c(C(F)(F)F)c5F)C(=O)C4(C)C)cc3)CC2)NC(=O)[C@@H]2C[C@@H](O)CN2C(=O)[C@@H](NC(=O)C2(F)CC2)C(C)(C)C)cc1 [Compound A133] | 0.0333 | 2.253 ± 0.851
